Experimental data reported in US20050143357A1 (priority 2002, published 2005).

Assays:
[1] = system: upstream regulatory portion of the VDUP-1; experiment: VDUP-1 regulatory region luciferase reporter assay in transiently transfected LNCaP cells; assay type: cell-based, human; details: VDUP-1 regulatory portion fused to luceferase gene, different time points, luminometer
Method: A human cell line, LNCaP was transiently transfected with a DNA vector composed of the upstream regulatory portion of the VDUP-1 fused to the gene encoding luceferase. The procedures to carry out transfection were essentially as described in example 2. At different time points a steroid with androgen properties, exemplified as R1881, were added to cell cultures, as was calcitriol (vitamin D). At different time points, luciferace activity in cell extracts was measured using a luminometer. The outcome of this experiment was that the level of luceferase was decreased by the steroid and was increased by vitamin D.

5 α-reduotase = details: once it enters prostate cells, by 5 α-reduotase; cited from earlier work

SMILES	level of luceferase (luciferace activity in cell extracts) [1]	fraction converted to dihydrotestosterone (DHT) (5 α-reduotase)
C=C1/C(=C\C=C2/CCC[C@]3(C)[C@@H]([C@H](C)CCCC(C)(C)O)CC[C@@H]23)C[C@@H](O)C[C@@H]1O [calcitriol]	increased	–
C[C@]1(O)CC[C@H]2[C@@H]3CCC4=CC(=O)CCC4=C3C=C[C@@]21C [R1881]	decreased	–
C[C@]12CC[C@H]3[C@@H](CCC4=CC(=O)CC[C@@]43C)[C@@H]1CC[C@@H]2O [Testosterone]	–	about 90%
